These results are taken from ChEMBL document CHEMBL5113503, “Synthesis and biological evaluation of 4-(4-aminophenyl)-6-methylisoxazolo[3,4-b] pyridin-3-amine covalent inhibitors as potential agents for the treatment of acute myeloid leukemia” (Bioorg Med Chem, 2022).

For orientation: IC50 means the concentration that gives 50% inhibition. As a reminder, the pIC50 is −log10 of the IC50, conventionally taken in molar units.

pIC50: −log10 of the molar value.

The test system of data set [1] is MV4-11. The data set is described as follows: Induction of cell cycle arrest in human MV4-11 cells assessed as accumulation at G0/G1 phase at 0.1 uM measured after 24 hrs by flow cytometry (reference value: 64.29 %). The format is functional. (In flow cytometry, cells or beads pass a laser one at a time.)
The subject of data set [2] is MV4-11. The data set is described as follows: Induction of apoptosis in human MV4-11 cells assessed as early apoptotic cells at 0.1 uM measured after 48 hrs by Annexin V-FITC/PI double staining based flow cytometric analysis (reference value: 2.04 %). Format: functional.
Data set [3] relates to MV4-11. Briefly: Induction of apoptosis in human MV4-11 cells assessed as viable cells at 0.5 uM measured after 48 hrs by Annexin V-FITC/PI double staining based flow cytometric analysis (reference value: 80.26 %). As to conditions: read-out: Activity. The format is functional.
Data set [4] in a line: Cytotoxicity against human K562 cells assessed as cell growth inhibition measured after 72 hrs by CCK8 assay. Format: toxicity, cell-based. (In general: Formazan colour is commonly taken as a measure of viable cells.)
For data set [5], the target named is T1, Receptor-type tyrosine-protein kinase FLT3 (Homo sapiens, UniProt P36888).
T1 sequence (P36888 whole entry): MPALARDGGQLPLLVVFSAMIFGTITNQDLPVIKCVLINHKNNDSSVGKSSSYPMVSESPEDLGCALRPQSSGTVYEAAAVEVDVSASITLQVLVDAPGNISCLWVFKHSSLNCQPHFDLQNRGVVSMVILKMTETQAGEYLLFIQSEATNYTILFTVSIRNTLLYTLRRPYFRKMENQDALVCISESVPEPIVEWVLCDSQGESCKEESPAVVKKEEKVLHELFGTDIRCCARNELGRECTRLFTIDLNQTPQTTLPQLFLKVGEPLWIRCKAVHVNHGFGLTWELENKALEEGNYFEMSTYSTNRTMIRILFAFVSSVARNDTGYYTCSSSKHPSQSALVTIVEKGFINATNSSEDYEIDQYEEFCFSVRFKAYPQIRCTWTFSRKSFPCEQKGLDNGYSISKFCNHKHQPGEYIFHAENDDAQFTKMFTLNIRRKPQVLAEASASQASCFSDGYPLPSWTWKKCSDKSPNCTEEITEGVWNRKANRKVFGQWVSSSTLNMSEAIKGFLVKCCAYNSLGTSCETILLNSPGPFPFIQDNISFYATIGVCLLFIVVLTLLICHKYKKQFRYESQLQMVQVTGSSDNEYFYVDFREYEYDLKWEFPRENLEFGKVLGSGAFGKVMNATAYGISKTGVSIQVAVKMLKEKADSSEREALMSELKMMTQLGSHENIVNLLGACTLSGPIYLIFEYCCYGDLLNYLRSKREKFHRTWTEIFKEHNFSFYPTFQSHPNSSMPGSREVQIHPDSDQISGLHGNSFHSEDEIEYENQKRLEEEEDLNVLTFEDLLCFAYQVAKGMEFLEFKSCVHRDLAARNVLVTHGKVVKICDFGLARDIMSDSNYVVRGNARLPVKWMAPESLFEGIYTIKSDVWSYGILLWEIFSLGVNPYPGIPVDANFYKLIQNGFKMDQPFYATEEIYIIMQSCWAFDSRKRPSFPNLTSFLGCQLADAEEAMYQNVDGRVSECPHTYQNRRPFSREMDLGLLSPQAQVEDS
Briefly: Inhibition of FLT3 (unknown origin) preincubated with compound for 10 mins followed by substrate addition and measured after 1 hrs by ADP-Glo kinase assay.

Data set [6] relates to A549. Briefly: Antiproliferative activity human A549 cells assessed as cell growth inhibition measured after 72 hrs by CCK8 assay. As to conditions: A549, 72 h.
Data set [7] has as its system MV4-11. Briefly: Induction of cell cycle arrest in human MV4-11 cells assessed as accumulation at G0/G1 phase at 2.5 uM measured after 24 hrs by flow cytometry (reference value: 64.29 %). The format is functional.
Data set [8] deals with MV4-11. The data set is described as follows: Induction of apoptosis in human MV4-11 cells assessed as early apoptotic cells at 0.5 uM measured after 48 hrs by Annexin V-FITC/PI double staining based flow cytometric analysis (reference value: 2.04 %). The format is functional.
Data set [9] deals with Serine/threonine-protein kinase AKT (Homo sapiens) (UniProt P31751+Q9Y243+P31749). Briefly: Inhibition of AKT phosphorylation in human MV4-11 cells incubated for 12 hrs by Western blot analysis. Format: cell-based. The note with it: dose 0.1-2.5 µM, DDE = dose-dependent effect.
Sequence of Serine/threonine-protein kinase AKT (Homo sapiens) (P31749 whole entry, looked up): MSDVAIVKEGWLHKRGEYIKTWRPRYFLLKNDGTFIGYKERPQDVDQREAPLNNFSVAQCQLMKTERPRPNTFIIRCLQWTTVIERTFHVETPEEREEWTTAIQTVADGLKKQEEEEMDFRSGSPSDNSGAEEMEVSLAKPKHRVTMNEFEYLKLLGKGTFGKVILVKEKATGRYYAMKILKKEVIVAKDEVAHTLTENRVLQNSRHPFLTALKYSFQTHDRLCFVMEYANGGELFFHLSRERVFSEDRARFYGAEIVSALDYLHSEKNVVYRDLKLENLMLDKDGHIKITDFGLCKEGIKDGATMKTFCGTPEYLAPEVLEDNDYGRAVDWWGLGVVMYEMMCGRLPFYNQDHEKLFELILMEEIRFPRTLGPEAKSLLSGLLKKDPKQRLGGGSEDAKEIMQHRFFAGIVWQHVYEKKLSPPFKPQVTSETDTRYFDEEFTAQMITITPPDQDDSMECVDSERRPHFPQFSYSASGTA
Sequence of Serine/threonine-protein kinase AKT (Homo sapiens) (P31751 whole entry, looked up): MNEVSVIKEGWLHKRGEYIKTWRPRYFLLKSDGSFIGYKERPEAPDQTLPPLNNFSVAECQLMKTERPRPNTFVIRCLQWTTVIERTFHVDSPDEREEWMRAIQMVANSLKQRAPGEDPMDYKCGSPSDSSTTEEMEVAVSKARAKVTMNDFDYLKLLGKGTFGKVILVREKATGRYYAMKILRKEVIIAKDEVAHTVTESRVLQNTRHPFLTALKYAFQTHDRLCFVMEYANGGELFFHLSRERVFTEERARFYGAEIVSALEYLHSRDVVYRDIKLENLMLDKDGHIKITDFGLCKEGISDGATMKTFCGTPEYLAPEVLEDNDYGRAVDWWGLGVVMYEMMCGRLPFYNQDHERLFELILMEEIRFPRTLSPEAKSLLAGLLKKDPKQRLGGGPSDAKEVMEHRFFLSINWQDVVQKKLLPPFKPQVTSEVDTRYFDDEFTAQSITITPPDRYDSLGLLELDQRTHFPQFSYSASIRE
Sequence of Serine/threonine-protein kinase AKT (Homo sapiens) (Q9Y243 whole entry, looked up): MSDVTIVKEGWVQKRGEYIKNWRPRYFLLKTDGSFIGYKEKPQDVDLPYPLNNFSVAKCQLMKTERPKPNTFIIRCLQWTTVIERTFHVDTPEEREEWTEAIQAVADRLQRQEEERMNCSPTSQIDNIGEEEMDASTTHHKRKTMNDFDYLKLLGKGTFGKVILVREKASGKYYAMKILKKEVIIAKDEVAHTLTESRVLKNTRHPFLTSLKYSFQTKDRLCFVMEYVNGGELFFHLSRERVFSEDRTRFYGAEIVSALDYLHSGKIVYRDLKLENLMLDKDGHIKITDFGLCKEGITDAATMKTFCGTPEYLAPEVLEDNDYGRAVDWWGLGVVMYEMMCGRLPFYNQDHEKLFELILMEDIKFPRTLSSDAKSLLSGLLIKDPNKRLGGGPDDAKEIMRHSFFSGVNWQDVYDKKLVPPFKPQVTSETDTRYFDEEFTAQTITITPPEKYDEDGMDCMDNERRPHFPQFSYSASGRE
In data set [10] the target is Receptor-type tyrosine-protein kinase FLT3 (Homo sapiens) (UniProt P36888). Briefly: Inhibition of FLT3 phosphorylation in human MV4-11 cells incubated for 12 hrs by Western blot analysis. Format: cell-based. As to conditions: dose 0.1-2.5 µM, DDE = dose-dependent effect. Background: A western blot detects proteins with antibodies after separation by electrophoresis.

Data set [11] has as its system HL-60. Briefly: Antiproliferative activity against human HL-60 cells harboring wildtype FLT3 assessed as cell growth inhibition measured after 72 hrs by CCK8 assay. The note with it: HL-60, 72 h.
The subject of data set [12] is MV4-11. The data set is described as follows: Induction of apoptosis in human MV4-11 cells assessed as early apoptotic cells at 2.5 uM measured after 48 hrs by Annexin V-FITC/PI double staining based flow cytometric analysis (reference value: 2.04 %). The format is functional.
In data set [13] the test system is MV4-11. The data set is described as follows: Inhibition of ERK phosphorylation in human MV4-11 cells incubated for 12 hrs by Western blot analysis. Format: cell-based. The note with it: dose 0.1-2.5 µM, DDE = dose-dependent effect.
Data set [14] relates to MV4-11. Briefly: Induction of apoptosis in human MV4-11 cells assessed as viable cells at 2.5 uM measured after 48 hrs by Annexin V-FITC/PI double staining based flow cytometric analysis (reference value: 80.26 %). The note with it: read-out: Activity. The format is functional.
Data set [15] has as its target T2, Signal transducer and activator of transcription 5A (Homo sapiens) (UniProt P42229).
T2 sequence (whole entry): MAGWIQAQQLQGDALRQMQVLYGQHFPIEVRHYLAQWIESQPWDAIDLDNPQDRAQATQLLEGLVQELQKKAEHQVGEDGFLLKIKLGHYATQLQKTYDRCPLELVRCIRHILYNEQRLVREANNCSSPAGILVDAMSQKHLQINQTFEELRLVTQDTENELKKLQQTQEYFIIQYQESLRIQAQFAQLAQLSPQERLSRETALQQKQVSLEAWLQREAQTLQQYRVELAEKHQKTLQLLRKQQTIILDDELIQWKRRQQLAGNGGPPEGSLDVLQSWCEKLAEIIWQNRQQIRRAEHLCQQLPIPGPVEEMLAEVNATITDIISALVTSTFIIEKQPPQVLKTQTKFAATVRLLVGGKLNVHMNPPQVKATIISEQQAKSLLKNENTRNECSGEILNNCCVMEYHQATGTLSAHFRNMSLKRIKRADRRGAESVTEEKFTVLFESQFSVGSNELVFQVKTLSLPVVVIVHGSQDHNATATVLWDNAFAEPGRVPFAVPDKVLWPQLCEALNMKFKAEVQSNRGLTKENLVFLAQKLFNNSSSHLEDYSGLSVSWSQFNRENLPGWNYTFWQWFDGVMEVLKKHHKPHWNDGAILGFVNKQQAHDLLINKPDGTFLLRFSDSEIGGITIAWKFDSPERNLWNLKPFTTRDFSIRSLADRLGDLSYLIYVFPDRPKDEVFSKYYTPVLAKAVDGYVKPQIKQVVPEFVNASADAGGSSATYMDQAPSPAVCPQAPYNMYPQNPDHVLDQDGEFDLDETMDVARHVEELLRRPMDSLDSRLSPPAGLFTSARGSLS
Briefly: Inhibition of STAT5 phosphorylation in human MV4-11 cells incubated for 12 hrs by Western blot analysis. The format is cell-based. As to conditions: dose 0.1-2.5 µM, DDE = dose-dependent effect.

The test system of data set [16] is MV4-11. Briefly: Induction of apoptosis in human MV4-11 cells assessed as viable cells at 0.1 uM measured after 48 hrs by Annexin V-FITC/PI double staining based flow cytometric analysis (reference value: 80.26 %). Format: functional. As to conditions: read-out: Activity.

As to `C=CC(=O)Nc1ccc(NC(=O)Nc2ccc(-c3cc(C)nc4noc(N)c34)cc2)cc1`, the Activity in [1] is reported as 67.6%; in data set [2], 1.83%; in data set [7] it was 83%; in [8] it was 2.43%; in data set [12], 1.5%. Further, the viability at 0.5 µM in data set [3] is 77.5%. The IC50 at 72 h in [4] was above 10 µM. Moreover, the pIC50 in data set [5] is 6.59; in data set [6], below 5.00; in [11] it was below 5.00. Also, the inhibition entry in data set [9], in [10], in data set [13] and in data set [15] was “Dde” throughout. Besides, in [14], the viability at 2.5 µM was determined as 53.9%. The viability at 0.1 µM in data set [16] was determined as 81.8%.
